Test results reported in patent publication US20230407243A1, “GENETIC PLATFORM TO INVESTIGATE THE FUNCTIONS OF BACTERIAL DRUG EFFLUX PUMPS” (priority 2022, published 2023).
Read-outs that look alike come from different tables or passages of the source.

Key:
Format in all cases: cell-based, Escherichia coli
[1] = test system: EKO-35 strains producing different efflux pumps (EKO-35 araC::X); assay: Checkerboard synergy (FICI) of PAβN or NMP with antibiotics
How it was run: (§1)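 Checkerboard broth microdilution in MHB II followed CLSI guidelines, with MIC defined as the lowest concentration giving no growth by OD600. FICI was calculated as CA/MICA + CB/MICB for PAβN or NMP combined with an antibiotic, with <0.5 classed as synergistic. Efflux-attributed fold resistance is the strain MIC divided by the EKO-35 MIC.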

wild-type E. coli K-12 = test system: wild-type E. coli K-12
How it was run: as §1

[2] = test system: EKO-35 porinated strain expressing acrD; assay: Checkerboard synergy (FICI), porinated strain
How it was run: as §1

wild-type K-12-Pore = assay: Checkerboard synergy (FICI), porinated strain
How it was run: as §1

[3] = test system: EKO-35 porinated strain expressing acrB; assay: Checkerboard synergy (FICI), porinated strain
How it was run: as §1

[4] = test system: EKO-35-Pore acrBD408A (functionally inactive AcrB variant); assay: Checkerboard synergy (FICI), porinated strain
How it was run: as §1

[5] = test system: EKO-35 porinated strain expressing acrF (AcrEF); assay: Checkerboard synergy (FICI), porinated strain
How it was run: as §1

EKO-35-Pore = assay: Checkerboard synergy (FICI), porinated strain
How it was run: as §1

[6] = EKO-35 mdtEF, PAβN + antibiotic
[7] = strain EKO-35 acrB, NMP + antibiotic
[8] = strain EKO-35 acrD, NMP + antibiotic
[9] = strain EKO-35 acrEF, NMP + antibiotic
[10] = EKO-35 acrD Pore, PAβN + antibiotic
[11] = strain EKO-35 acrD Pore, NMP + antibiotic
[12] = strain K-12 Pore, NMP + antibiotic
[13] = EKO-35 acrB Pore, NMP + antibiotic
[14] = EKO-35 acrB Pore, PAβN + antibiotic
[15] = strain EKO-35 acrB Pore, NMP + antibiotic
[16] = EKO-35 acrBD408A Pore, NMP + antibiotic
[17] = EKO-35 acrBD408A Pore, PAβN + antibiotic
[18] = strain EKO-35 acrBD408A Pore, NMP + antibiotic
[19] = EKO-35 acrEF Pore, PAβN + antibiotic
[20] = strain EKO-35 Pore, NMP + antibiotic

CC(=O)O[C@H]1C[C@@]2(C)[C@@H](C[C@@H](O)[C@H]3[C@@]4(C)CC[C@@H](O)[C@@H](C)[C@@H]4CC[C@@]32C)/C1=C(\CCC=C(C)C)C(=O)O [fusidic acid]
Effect ([1]; EKO-35 acrB, NMP + antibiotic): Synergistic
FICI ([1]; EKO-35 acrB, NMP + antibiotic): 0.500
Effect ([1]; EKO-35 acrB, PAβN + antibiotic): Synergistic
FICI ([1]; EKO-35 acrB, PAβN + antibiotic): 0.129
MICb Combined ([1]; EKO-35 acrB, antibiotic in combination with PAβN): 4 µg/mL
Effect ([1]; EKO-35 acrD, NMP + antibiotic): Additive
FICI ([1]; EKO-35 acrD, NMP + antibiotic): 0.563
Effect ([1]; EKO-35 acrD, PAβN + antibiotic): Synergistic
FICI ([1]; EKO-35 acrD, PAβN + antibiotic): 0.141
MICb Alone ([1]; EKO-35 acrD, antibiotic alone (PAβN checkerboard)): 256 µg/mL
MICb Combined ([1]; EKO-35 acrD, antibiotic in combination with PAβN): 4 µg/mL
Effect ([1]; EKO-35 acrEF, NMP + antibiotic): Additive
FICI ([1]; EKO-35 acrEF, NMP + antibiotic): 0.750
Effect ([1]; EKO-35 acrEF, PAβN + antibiotic): Synergistic
MICb Alone ([1]; EKO-35 acrEF, antibiotic alone (PAβN checkerboard)): 32 µg/mL
MICb Combined ([1]; EKO-35 acrEF, antibiotic in combination with PAβN): 8 µg/mL
Effect ([1]; EKO-35 mdtEF, NMP + antibiotic): Synergistic
Effect [1, 6]: Synergistic
FICI [1, 6]: 0.250
MICb Alone ([1]; EKO-35 mdtEF, antibiotic alone (PAβN checkerboard)): 64 µg/mL
MICb Combined ([1]; EKO-35 mdtEF, antibiotic in combination with PAβN): 8 µg/mL
Effect [1, 7]: Synergistic (Synergy (FICI ≤0.5))
FICI [1, 7]: 0.500
MICb Combined ([1]; strain EKO-35 acrB, antibiotic in combination with NMP): 256 µg/mL
Effect [1, 8]: Additive (additive (FICI >0.5-1.0))
FICI [1, 8]: 0.563
MICb Alone ([1]; strain EKO-35 acrD, antibiotic alone): 256 µg/mL
MICb Combined ([1]; strain EKO-35 acrD, antibiotic in combination with NMP): 16 µg/mL
Effect [1, 9]: Additive (additive (FICI >0.5-1.0))
FICI [1, 9]: 0.750
MICb Alone ([1]; strain EKO-35 acrEF, antibiotic alone): 32 µg/mL
MICb Combined ([1]; strain EKO-35 acrEF, antibiotic in combination with NMP): 16 µg/mL
Effect ([1]; strain EKO-35 mdtEF, NMP + antibiotic): Synergistic (Synergy (FICI ≤0.5))
MICb Alone ([1]; strain EKO-35 mdtEF, antibiotic alone): 64 µg/mL
MICb Combined ([1]; strain EKO-35 mdtEF, antibiotic in combination with NMP): 8 µg/mL
Effect (wild-type E. coli K-12; K-12, NMP + antibiotic): Synergistic
FICI (wild-type E. coli K-12; K-12, NMP + antibiotic): 0.375
Effect (wild-type E. coli K-12; K-12, PAβN + antibiotic): Synergistic
FICI (wild-type E. coli K-12; K-12, PAβN + antibiotic): 0.156
MICb Alone (wild-type E. coli K-12; K-12, antibiotic alone (PAβN checkerboard)): 1024 µg/mL
MICb Combined (wild-type E. coli K-12; K-12, antibiotic in combination with PAβN): 32 µg/mL
Effect (wild-type E. coli K-12; strain K-12, NMP + antibiotic): Synergistic (Synergy (FICI ≤0.5))
FICI (wild-type E. coli K-12; strain K-12, NMP + antibiotic): 0.375
MICb Alone (wild-type E. coli K-12; strain K-12, antibiotic alone): 1024 µg/mL
MICb Combined (wild-type E. coli K-12; strain K-12, antibiotic in combination with NMP): 128 µg/mL
FICI ([2]; EKO-35 acrD Pore, NMP + antibiotic): 1.000
Effect [2, 10]: Synergistic
FICI [2, 10]: 0.250
MICb Alone ([2]; EKO-35 acrD Pore, antibiotic alone (PAβN checkerboard)): 64 µg/mL
MICb Combined ([2]; EKO-35 acrD Pore, antibiotic in combination with PAβN): 8 µg/mL
Effect [2, 11]: — (indifferent (FICI >1.0))
FICI [2, 11]: 1.000
MICb Alone ([2]; strain EKO-35 acrD Pore, antibiotic alone): 64 µg/mL
MICb Combined ([2]; strain EKO-35 acrD Pore, antibiotic in combination with NMP): 32 µg/mL
Effect (wild-type K-12-Pore; K-12 Pore, NMP + antibiotic): Synergistic
FICI (wild-type K-12-Pore; K-12 Pore, NMP + antibiotic): 0.500
Effect (wild-type K-12-Pore; K-12 Pore, PAβN + antibiotic): Synergistic
FICI (wild-type K-12-Pore; K-12 Pore, PAβN + antibiotic): 0.188
MICb Alone (wild-type K-12-Pore; K-12 Pore, antibiotic alone (PAβN checkerboard)): 512 µg/mL
MICb Combined (wild-type K-12-Pore; K-12 Pore, antibiotic in combination with PAβN): 32 µg/mL
Effect (wild-type K-12-Pore; [12]): Synergistic (Synergy (FICI ≤0.5))
FICI (wild-type K-12-Pore; [12]): 0.500
MICb Alone (wild-type K-12-Pore; strain K-12 Pore, antibiotic alone): 512 µg/mL
Effect [3, 13]: Synergistic
FICI [3, 13]: 0.500
Effect [3, 14]: Synergistic
FICI [3, 14]: 0.129
MICb Alone ([3]; EKO-35 acrB Pore, antibiotic alone (PAβN checkerboard)): 512 µg/mL
MICb Combined ([3]; EKO-35 acrB Pore, antibiotic in combination with PAβN): 2 µg/mL
potentiation of the labelled compound by NMP ([3]; porinated strain producing AcrB): enhancing the activity
Effect [3, 15]: Synergistic (Synergy (FICI ≤0.5))
FICI [3, 15]: 0.500
MICb Alone ([3]; strain EKO-35 acrB Pore, antibiotic alone): 512 µg/mL
Effect [4, 16]: Additive
FICI [4, 16]: 0.750
Effect [4, 17]: Synergistic
FICI [4, 17]: 0.255
MICb Alone ([4]; EKO-35 acrBD408A Pore, antibiotic alone (PAβN checkerboard)): 1 µg/mL
MICb Combined ([4]; EKO-35 acrBD408A Pore, antibiotic in combination with PAβN): 0.13 µg/mL
Effect [4, 18]: Additive (additive (FICI >0.5-1.0))
FICI [4, 18]: 0.750
MICb Alone ([4]; strain EKO-35 acrBD408A Pore, antibiotic alone): 0.5 µg/mL
MICb Combined ([4]; strain EKO-35 acrBD408A Pore, antibiotic in combination with NMP): 0.25 µg/mL
Effect ([5]; EKO-35 acrEF Pore, NMP + antibiotic): Additive
Effect [5, 19]: Synergistic
FICI [5, 19]: 0.313
MICb Alone ([5]; EKO-35 acrEF Pore, antibiotic alone (PAβN checkerboard)): 4 µg/mL
MICb Combined ([5]; EKO-35 acrEF Pore, antibiotic in combination with PAβN): 1 µg/mL
Effect ([5]; strain EKO-35 acrEF Pore, NMP + antibiotic): Additive (additive (FICI >0.5-1.0))
MICb Alone ([5]; strain EKO-35 acrEF Pore, antibiotic alone): 2 µg/mL
MICb Combined ([5]; strain EKO-35 acrEF Pore, antibiotic in combination with NMP): 1 µg/mL
Effect (EKO-35-Pore; EKO-35 Pore, NMP + antibiotic): Additive
FICI (EKO-35-Pore; EKO-35 Pore, NMP + antibiotic): 0.620
Effect (EKO-35-Pore; EKO-35 Pore, PAβN + antibiotic): Synergistic
FICI (EKO-35-Pore; EKO-35 Pore, PAβN + antibiotic): 0.310
MICb Alone (EKO-35-Pore; EKO-35 Pore, antibiotic alone (PAβN checkerboard)): 1 µg/mL
MICb Combined (EKO-35-Pore; EKO-35 Pore, antibiotic in combination with PAβN): 0.06 µg/mL
interaction of PAβN in combination with the labelled antibiotic (FICI) (EKO-35-Pore; porinated efflux-deficient strains): synergy was maintained
Effect (EKO-35-Pore; [20]): Additive (additive (FICI >0.5-1.0))
FICI (EKO-35-Pore; [20]): 0.620
MICb Alone (EKO-35-Pore; strain EKO-35 Pore, antibiotic alone): 0.5 µg/mL
MICb Combined (EKO-35-Pore; strain EKO-35 Pore, antibiotic in combination with NMP): 0.06 µg/mL
